Laboratory results reported in patent publication US20250221966A1, “RXFP1 AGONISTS” (BRISTOL-MYERS SQUIBB COMPANY, priority 2021, published 2025).

Biological target: T1, human RXFP1 (Homo sapiens, UniProt Q9HBX9)
T1 construct: expressed in transfected cells
T1 sequence (Q9HBX9 1-757): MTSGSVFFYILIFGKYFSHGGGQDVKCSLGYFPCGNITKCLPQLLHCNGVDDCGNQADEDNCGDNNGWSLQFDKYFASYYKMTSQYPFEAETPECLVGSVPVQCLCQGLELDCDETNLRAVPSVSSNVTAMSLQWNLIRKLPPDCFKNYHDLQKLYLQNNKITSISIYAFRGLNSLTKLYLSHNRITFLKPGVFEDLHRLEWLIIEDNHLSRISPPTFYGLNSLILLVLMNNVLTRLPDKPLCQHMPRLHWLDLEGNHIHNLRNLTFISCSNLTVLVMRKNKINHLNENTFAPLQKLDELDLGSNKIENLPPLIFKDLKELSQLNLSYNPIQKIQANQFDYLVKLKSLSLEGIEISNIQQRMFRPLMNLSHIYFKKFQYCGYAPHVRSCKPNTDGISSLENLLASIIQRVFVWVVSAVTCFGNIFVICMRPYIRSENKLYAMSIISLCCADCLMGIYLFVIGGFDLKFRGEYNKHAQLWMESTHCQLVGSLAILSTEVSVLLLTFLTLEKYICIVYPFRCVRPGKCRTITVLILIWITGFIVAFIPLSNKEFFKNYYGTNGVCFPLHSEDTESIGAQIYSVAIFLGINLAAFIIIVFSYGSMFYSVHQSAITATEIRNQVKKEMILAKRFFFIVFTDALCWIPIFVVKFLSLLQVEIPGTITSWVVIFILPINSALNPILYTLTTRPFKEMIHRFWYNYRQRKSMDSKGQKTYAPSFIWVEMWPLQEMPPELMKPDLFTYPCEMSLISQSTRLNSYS
Test: RXFP1 cAMP assay (hRXFP1 HEK293 cAMP assay, HTRF)
Assay type: cell-based
Conditions: HEK293 cells stably expressing human RXFP1, 30 min at room temperature, read-out: cAMP hRXFP1 HEK293 Assay EC50
Outline: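 Potency and activity come from a four-parameter logistic fit of cAMP against compound concentration, tested from 0.010 nM up to 50 μM. The assay uses HEK293 cells stably expressing human RXFP1, incubated 30 min at ambient temperature with phosphodiesterase inhibitor IBMX present.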

Structure (SMILES)	EC50 [nM]
COc1ccc(C2CCCN2C(=O)CCO)cc1C(=O)N[C@@H]1C2CCC(C2=CC2CC2)[C@@H]1C(=O)Nc1ccc(F)c(C(F)(F)F)c1 (stereo partly shown) [compound 667]	384
COc1ccc(-c2cc(C(OC(=O)NCCC(F)(F)F)C(F)(F)F)ccc2F)cc1C(=O)N[C@@H]1C2CCC(/C2=C/C2CC2)[C@@H]1C(=O)Nc1ccc(F)c(C(F)(F)F)c1 (stereo partly shown) [compound 213]	2
COc1ccc(C2=NOC3COCC23)cc1C(=O)N[C@H]1[C@@H](C(=O)NCc2ccccc2C#N)[C@H]2CC[C@@H]1/C2=C\C1CC1 (stereo partly shown) [compound 613]	137
COc1ccc(-c2cccc(C(F)(F)F)n2)cc1C(=O)N[C@@H]1C2CCC(/C2=C/C2CC2)[C@@H]1C(=O)Nc1ccc(F)c(C(F)(F)F)c1 (stereo partly shown) [compound 283]	69
COc1cc(F)c(F)cc1C(=O)N[C@@H]1C2CCC(/C2=C/c2cccc(CN3CCOCC3)c2)[C@@H]1C(=O)Nc1ccc(F)c(C(F)(F)F)c1 (stereo partly shown) [compound 70]	2900
COc1ccc(C2=NOC3CC(CO)CC23)cc1C(=O)N[C@H]1[C@@H](C(=O)Nc2ccc(F)c(C(F)(F)F)c2)[C@H]2CC[C@@H]1C2CC(F)(F)F (stereo partly shown) [compound 550]	34.9
COc1ccc(C2=NOC3COCC23)cc1C(=O)N[C@H]1[C@@H](C(=O)NCC2CC(F)(F)C2)[C@H]2CC[C@@H]1/C2=C\C1CC1 (stereo partly shown) [compound 621]	164
COc1ccc(C2=NOC(C(=O)O)C2)cc1C(=O)N[C@@H]1C2CCC(/C2=C/C(F)(F)F)[C@@H]1C(=O)Nc1ccc(F)c(C(F)(F)F)c1 (stereo partly shown) [compound 389]	54
COc1ccc(C2=NO[C@H]3C[C@H](CO)CN23)cc1C(=O)N[C@H]1[C@@H](C(=O)Nc2ccc(F)c(C(F)(F)F)c2)[C@H]2CC[C@@H]1/C2=C\C1CC1 [compound 854]	3.9
COc1ccc(-c2cc(C(OC(=O)NC3CCC3)C(F)F)ccc2F)cc1C(=O)N[C@H]1[C@@H](C(=O)Nc2ccc(F)c(C(F)(F)F)c2)[C@H]2CC[C@@H]1/C2=C\C1CC1 (single isomer, unassigned) [Example 230]	1
COc1ccc(C2=NOC3COCC23)cc1C(=O)N[C@H]1[C@@H](C(=O)NCC(C)(C)OC)[C@H]2CC[C@@H]1/C2=C\C1CC1 (stereo partly shown) [compound 564]	47.3
COc1ccc(-c2cc(C(=O)O)ccc2F)cc1C(=O)N[C@@H]1C2CCC(/C2=C/c2ccoc2)[C@@H]1C(=O)Nc1ccc(F)c(C(F)(F)F)c1 (stereo partly shown) [compound 159]	21
COc1ccc(C2=NOC3COCC23)cc1C(=O)N[C@H]1[C@@H](C(=O)NC(C2CC2)C2CC2)[C@H]2CC[C@@H]1/C2=C\C1CC1 (stereo partly shown) [compound 521]	19.5
COc1cc(F)c(F)cc1C(=O)N[C@@H]1[C@@H]2CCC(/C2=C/c2ccoc2)[C@@H]1C(=O)Nc1ccc(F)c(C(F)(F)F)c1 [Example 12]	410
COc1ccc(-c2cc(CC(=O)O)ccc2F)cc1C(=O)N[C@@H]1C2CCC(/C2=C/c2ccccc2)[C@@H]1C(=O)Nc1ccc(F)c(C(F)(F)F)c1 (stereo partly shown) [compound 187]	19
CCOC(=O)/C=C1\C2CCC1[C@H](C(=O)Nc1ccc(F)c(C(F)(F)F)c1)[C@@H]2NC(=O)c1cc(F)c(F)cc1OC (stereo partly shown) [compound 7]	270
COc1ccc(C2=NOC3COCC23)cc1C(=O)N[C@H]1[C@@H](C(=O)NC23CC(C#N)(C2)C3)[C@H]2CC[C@@H]1/C2=C\C1CC1 (stereo partly shown) [compound 777]	13.9
COc1ccc(C2=NOC3CC(O)(C(F)(F)F)CC23)cc1C(=O)N[C@H]1[C@@H](C(=O)Nc2ccc(F)c(C(F)(F)F)c2)[C@H]2CC[C@@H]1/C2=C\C1CC1 (stereo partly shown) [compound 864]	3.8
COc1ccc(-c2cccc(CC(F)(F)F)c2)cc1C(=O)N[C@@H]1C2CCC(/C2=C/C2CC2)[C@@H]1C(=O)Nc1ccc(F)c(C(F)(F)F)c1 (stereo partly shown) [compound 287]	7
COc1ccc(-c2cc(S(=O)(=O)NC(C)(C)C)ccc2F)cc1C(=O)N[C@H]1[C@@H](C(=O)N[C@H](C)C2(C)CC2)[C@H]2CC[C@@H]1/C2=C\C1CC1 [compound 957]	5.3

Structure (SMILES)	EC50 [nM]
COc1ccc(-c2cc(C(OC(=O)NC34CC(C3)C4)C(F)(F)F)ccc2F)cc1C(=O)N[C@H]1[C@@H](C(=O)Nc2ccc(F)c(C(F)(F)F)c2)[C@H]2CC[C@@H]1/C2=C\C1CC1 (single isomer, unassigned) [Example 206]	1
COc1ccc(-c2cc(C(=O)O)ccc2F)cc1C(=O)N[C@H]1[C@@H](CNc2ccc(F)c(C(F)(F)F)c2)[C@H]2CC[C@@H]1/C2=C\C1CC1 [Example 258, 3′-(((1R,2R,3R,4R,Z)-7-(cyclopropylmethylene)-3-(((4-fluoro-3-(trifluoromethyl)phenyl)amino)methyl)bicyclo[2.2.1]heptan-2-yl)carbamoyl)-6-fluoro-4′-methoxy-[1,1′-biphenyl]-3-carboxylic acid]	283
COc1ccc(C2=NOC3CCC(O)C23)cc1C(=O)N[C@H]1[C@@H](C(=O)Nc2ccc(F)c(C(F)(F)F)c2)[C@H]2CC[C@@H]1/C2=C\C1CC1 (single isomer, unassigned) [compound 496]	10.5
COc1ccc(-c2cc(S(C)(=O)=O)ccc2F)cc1C(=O)N[C@H]1[C@@H](C(=O)Nc2ccc(F)c(C(F)(F)F)c2)[C@H]2CC[C@@H]1/C2=C\C1CC1 [compound 899]	3
COc1ccc(C2=NOC3CC(C#N)CC23)cc1C(=O)N[C@H]1[C@@H](C(=O)Nc2ccc(F)c(C(F)(F)F)c2)[C@H]2CC[C@@H]1/C2=C\C1CC1 (stereo partly shown) [compound 506]	12.7
COc1c(F)cc(C2=NOC3CC(O)CC23)cc1C(=O)N[C@H]1[C@@H](C(=O)Nc2ccc(F)c(C(F)(F)F)c2)[C@H]2CC[C@@H]1/C2=C\C1CCCC1 (stereo partly shown) [compound 868]	3.8
COc1ccc(C2=NO[C@H]3[C@@H]2CC[C@@H]3O)cc1C(=O)N[C@H]1[C@@H](C(=O)Nc2ccc(F)c(C(F)(F)F)c2)[C@H]2CC[C@@H]1/C2=C\C1CC1 (single isomer, unassigned) [compound 574]	67.8
COc1ccc(-c2cc(C(O)C(=O)O)ccc2F)cc1C(=O)NC1C2CCC(/C2=C/C2CC(F)(F)C2)C1C(=O)Nc1ccc(F)c(C(F)(F)F)c1 (stereo not shown) [compound 353]	11
COc1ccc(C2=NOC3CC(C(O)C(F)(F)F)CC23)cc1C(=O)N[C@H]1[C@@H](C(=O)Nc2ccc(F)c(C(F)(F)F)c2)[C@H]2CC[C@@H]1/C2=C\C1CC1 (single isomer, unassigned) [Example 530]	22.7
COc1ccc([C@@]2(O)CO[C@@H]3[C@@H](O)CO[C@@H]32)cc1C(=O)N[C@H]1[C@@H](C(=O)Nc2ccc(F)c(C(F)(F)F)c2)[C@H]2CC[C@@H]1/C2=C\C1CC1 [compound 700]	1050
COc1cc(F)c(F)cc1C(=O)N[C@@H]1C2CCC(/C2=C/c2ccccc2F)[C@@H]1C(=O)Nc1ccc(F)c(C(F)(F)F)c1 (stereo partly shown) [compound 54]	160
COc1ccc(-c2ccnc(C(F)F)c2)cc1C(=O)N[C@@H]1C2CCC(/C2=C/C2CC2)[C@@H]1C(=O)Nc1ccc(F)c(C(F)(F)F)c1 (stereo partly shown) [compound 284]	109
COc1cc(C)c(C2=NOC3COCC23)cc1C(=O)N[C@H]1[C@@H](C(=O)Nc2ccc(F)c(C(F)(F)F)c2)[C@H]2CC[C@@H]1/C2=C\C1CC1 (single isomer, unassigned) [compound 686]	653
COc1ccc(C2=NOC3(CCOCC3)C2)cc1C(=O)N[C@@H]1C2CCC(/C2=C/C2CC2)[C@@H]1C(=O)Nc1ccc(F)c(C(F)(F)F)c1 (stereo partly shown) [compound 402]	70
COc1ccc(N2CCCCS2(=O)=O)cc1C(=O)N[C@@H]1C2CCC(/C2=C/C2CC2)[C@@H]1C(=O)Nc1ccc(F)c(C(F)(F)F)c1 (stereo partly shown) [compound 373]	9
COc1ccc(C2=NOC3COCC23)cc1C(=O)N[C@H]1[C@@H](C(=O)NCC2(C)CCC2)[C@H]2CC[C@@H]1/C2=C\C1CC1 (stereo partly shown) [compound 477]	6.4
COc1ccc(C23COC(C(=O)O)(C2)C3)cc1C(=O)N[C@H]1[C@@H](C(=O)Nc2ccc(F)c(C(F)(F)F)c2)[C@H]2CC[C@@H]1/C2=C\C(F)(F)F [Example 724, 4-(3-(((1R,2R,3S,4R,Z)-3-((4-fluoro-3-(trifluoromethyl)phenyl)carbamoyl)-7-(2,2,2-trifluoroethylidene)bicyclo[2.2.1]heptan-2-yl)carbamoyl)-4-methoxyphenyl)-2-oxabicyclo[2.1.1]hexane-1-carboxylic acid]	5000
COc1ccc(C2=NO[C@H]3C[C@H](CO)C[C@@H]23)cc1C(=O)N[C@H]1[C@@H](C(=O)Nc2ccc(F)c(C(F)(F)F)c2)[C@H]2CC[C@@H]1/C2=C\CC(O)C(F)(F)F (stereo partly shown) [compound 826]	3
COc1ccc(C2=NOC(C3(O)CCC3)C2)cc1C(=O)N[C@H]1[C@@H](C(=O)Nc2ccc(F)c(C(F)(F)F)c2)[C@H]2CC[C@@H]1/C2=C\C1CC1 (single isomer, unassigned) [compound 603]	112
CCC(CC)NC(=O)[C@@H]1[C@H](NC(=O)c2cc(C3=NOC4COCC34)ccc2OC)[C@@H]2CC[C@H]1/C2=C/C1CC1 (stereo partly shown) [compound 611]	133
